{
  "source": "the kinase profiling compilation of Christmann-Franck et al. (2016)",
  "test_in_all_cases": "radiometric filter-binding kinase assay, Kinaseprofiler",
  "key": {"[1]": {"target": "PRKAA2 PRKAB1 PRKAG1 (human) (UniProt P54619+P54646+Q9Y478)", "settings": "ATP 45 µM"}, "INSR (human)": {"target": "INSR (human) (UniProt P06213)", "settings": "compound 10.0 µM; ATP 45 µM"}, "TLK2 (human)": {"target": "TLK2 (human) (UniProt Q86UE8)", "settings": "compound 10.0 µM; ATP 10 µM"}, "TNK2 (human)": {"target": "TNK2 (human) (UniProt Q07912)", "settings": "ATP 70 µM"}, "MAP3K9 (human)": {"target": "MAP3K9 (human) (UniProt P80192)", "settings": "compound 10.0 µM; ATP 45 µM"}, "CAMK1D (human)": {"target": "CAMK1D (human) (UniProt Q8IU85)", "settings": "compound 10.0 µM; ATP 15 µM"}, "STK33 (human)": {"target": "STK33 (human) (UniProt Q9BYT3)", "settings": "compound 10.0 µM; ATP 155 µM"}, "DYRK2 (human)": {"target": "DYRK2 (human) (UniProt Q92630)", "settings": "compound 10.0 µM; ATP 15 µM"}, "MAP3K7 (human)": {"target": "MAP3K7 (human) (UniProt O43318)", "sequence (O43318 whole entry, looked up)": "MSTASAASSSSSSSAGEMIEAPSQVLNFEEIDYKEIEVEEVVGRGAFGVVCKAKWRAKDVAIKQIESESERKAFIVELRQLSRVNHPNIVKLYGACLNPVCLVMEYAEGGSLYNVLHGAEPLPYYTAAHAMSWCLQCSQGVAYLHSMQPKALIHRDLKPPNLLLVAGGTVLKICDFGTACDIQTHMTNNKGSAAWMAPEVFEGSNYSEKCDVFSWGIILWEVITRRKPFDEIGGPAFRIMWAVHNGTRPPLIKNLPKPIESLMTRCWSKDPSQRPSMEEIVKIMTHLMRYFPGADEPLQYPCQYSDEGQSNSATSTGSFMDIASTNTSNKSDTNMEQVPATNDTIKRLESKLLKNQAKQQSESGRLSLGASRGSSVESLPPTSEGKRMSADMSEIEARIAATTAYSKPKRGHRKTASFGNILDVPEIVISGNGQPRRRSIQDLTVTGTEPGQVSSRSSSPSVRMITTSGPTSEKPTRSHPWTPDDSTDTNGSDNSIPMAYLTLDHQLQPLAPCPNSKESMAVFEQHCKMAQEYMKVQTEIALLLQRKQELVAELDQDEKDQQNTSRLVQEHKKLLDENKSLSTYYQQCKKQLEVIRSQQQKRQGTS", "settings": "ATP 45 µM"}, "ULK2 (human)": {"target": "ULK2 (human) (UniProt Q8IYT8)", "settings": "compound 10.0 µM; ATP 15 µM"}, "[2]": {"tested_on": "HIPK2 (human), Q9H2X6 [I471N]", "settings": "compound 10.0 µM; ATP 10 µM"}, "FGR (human)": {"target": "FGR (human) (UniProt P09769)", "settings": "compound 10.0 µM; ATP 45 µM"}, "SIK1 (human)": {"target": "SIK1 (human) (UniProt P57059)", "settings": "ATP 45 µM"}, "CAMK2G (human)": {"target": "CAMK2G (human) (UniProt Q13555)", "settings": "compound 10.0 µM; ATP 10 µM"}, "CHEK1 (human)": {"target": "CHEK1 (human) (UniProt O14757)", "settings": "compound 10.0 µM; ATP 90 µM"}, "CAMK2D (human)": {"target": "CAMK2D (human) (UniProt Q13557)", "settings": "compound 1.0 µM; ATP 10 µM"}, "CAMK2B (human)": {"target": "CAMK2B (human) (UniProt Q13554)", "sequence (Q13554 whole entry, looked up)": "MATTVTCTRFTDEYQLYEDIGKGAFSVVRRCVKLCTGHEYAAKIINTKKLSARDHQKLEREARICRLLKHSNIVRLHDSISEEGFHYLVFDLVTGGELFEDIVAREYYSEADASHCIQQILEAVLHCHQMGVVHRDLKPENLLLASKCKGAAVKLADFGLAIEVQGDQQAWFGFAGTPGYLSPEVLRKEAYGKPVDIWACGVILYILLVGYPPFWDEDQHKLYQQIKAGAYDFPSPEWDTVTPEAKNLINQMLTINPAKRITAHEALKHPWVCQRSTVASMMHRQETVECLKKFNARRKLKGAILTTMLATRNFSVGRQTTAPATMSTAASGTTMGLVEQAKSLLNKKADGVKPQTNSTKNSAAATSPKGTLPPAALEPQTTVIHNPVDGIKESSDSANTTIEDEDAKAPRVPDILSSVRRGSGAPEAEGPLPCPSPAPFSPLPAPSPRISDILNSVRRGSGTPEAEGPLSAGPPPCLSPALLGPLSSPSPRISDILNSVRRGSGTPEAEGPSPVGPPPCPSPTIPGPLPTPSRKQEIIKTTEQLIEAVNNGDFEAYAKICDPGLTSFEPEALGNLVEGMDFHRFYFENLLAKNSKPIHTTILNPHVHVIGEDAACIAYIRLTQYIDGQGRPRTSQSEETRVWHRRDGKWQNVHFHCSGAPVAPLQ", "settings": "ATP 15 µM"}, "RPS6KA4 KD1 KD2 (human)": {"target": "RPS6KA4 KD1 KD2 (human) (UniProt O75676)", "settings": "ATP 45 µM"}, "RPS6KA2 KD1 KD2 (human)": {"target": "RPS6KA2 KD1 KD2 (human) (UniProt Q15349)", "settings": "compound 1.0 µM; ATP 10 µM"}, "MAPK8 (human)": {"target": "MAPK8 (human) (UniProt P45983)", "sequence (P45983 whole entry, looked up)": "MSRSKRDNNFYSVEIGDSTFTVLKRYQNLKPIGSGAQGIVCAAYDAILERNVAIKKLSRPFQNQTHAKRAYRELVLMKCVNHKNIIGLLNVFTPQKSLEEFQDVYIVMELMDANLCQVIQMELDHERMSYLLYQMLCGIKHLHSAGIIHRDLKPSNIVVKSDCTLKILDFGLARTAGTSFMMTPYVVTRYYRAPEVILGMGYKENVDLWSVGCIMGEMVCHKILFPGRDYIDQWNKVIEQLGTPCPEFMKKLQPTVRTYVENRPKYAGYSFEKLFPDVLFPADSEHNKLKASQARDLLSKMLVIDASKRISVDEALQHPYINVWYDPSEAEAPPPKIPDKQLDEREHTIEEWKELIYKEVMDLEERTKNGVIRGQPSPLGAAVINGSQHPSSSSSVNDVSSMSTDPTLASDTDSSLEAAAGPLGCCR", "settings": "ATP 45 µM"}, "CDK3 CCNE1 (human)": {"target": "CDK3 CCNE1 (human) (UniProt Q00526+P24864)", "settings": "ATP 200 µM"}, "GCK (human)": {"target": "GCK (human) (UniProt Q12851)", "settings": "compound 1.0 µM; ATP 200 µM"}, "ACVR1B (human)": {"target": "ACVR1B (human) (UniProt P36896)", "settings": "compound 10.0 µM; ATP 10 µM"}, "KDR (human)": {"target": "KDR (human) (UniProt P35968)", "settings": "compound 10.0 µM; ATP 90 µM"}, "PDPK1 (human)": {"target": "PDPK1 (human) (UniProt O15530)", "sequence (O15530 whole entry, looked up)": "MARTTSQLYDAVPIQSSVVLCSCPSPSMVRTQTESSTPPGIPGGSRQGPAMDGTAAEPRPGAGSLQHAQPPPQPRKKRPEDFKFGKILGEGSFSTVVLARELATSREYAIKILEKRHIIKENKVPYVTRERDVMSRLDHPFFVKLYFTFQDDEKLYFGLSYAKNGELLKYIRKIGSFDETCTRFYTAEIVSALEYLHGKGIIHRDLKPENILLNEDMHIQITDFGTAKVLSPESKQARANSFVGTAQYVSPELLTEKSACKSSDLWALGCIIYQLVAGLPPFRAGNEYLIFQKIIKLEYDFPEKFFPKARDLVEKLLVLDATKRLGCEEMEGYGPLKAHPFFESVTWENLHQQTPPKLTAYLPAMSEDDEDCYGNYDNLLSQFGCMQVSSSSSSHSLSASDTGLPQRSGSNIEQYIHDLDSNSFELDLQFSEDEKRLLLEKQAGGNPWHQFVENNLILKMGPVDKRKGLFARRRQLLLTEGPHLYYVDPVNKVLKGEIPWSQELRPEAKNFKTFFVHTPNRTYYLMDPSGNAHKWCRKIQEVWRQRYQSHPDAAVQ", "settings": "ATP 10 µM"}, "[3]": {"target": "PRKAA1 PRKAB1 PRKAG1 (human) (UniProt P54619+Q13131+Q9Y478)", "settings": "ATP 45 µM"}, "TBK1 (human)": {"target": "TBK1 (human) (UniProt Q9UHD2)", "settings": "compound 1.0 µM; ATP 155 µM"}, "PAK4 (human)": {"target": "PAK4 (human) (UniProt O96013)", "settings": "compound 10.0 µM; ATP 10 µM"}, "MAP3K5 (human)": {"target": "MAP3K5 (human) (UniProt Q99683)", "sequence (Q99683 whole entry, looked up)": "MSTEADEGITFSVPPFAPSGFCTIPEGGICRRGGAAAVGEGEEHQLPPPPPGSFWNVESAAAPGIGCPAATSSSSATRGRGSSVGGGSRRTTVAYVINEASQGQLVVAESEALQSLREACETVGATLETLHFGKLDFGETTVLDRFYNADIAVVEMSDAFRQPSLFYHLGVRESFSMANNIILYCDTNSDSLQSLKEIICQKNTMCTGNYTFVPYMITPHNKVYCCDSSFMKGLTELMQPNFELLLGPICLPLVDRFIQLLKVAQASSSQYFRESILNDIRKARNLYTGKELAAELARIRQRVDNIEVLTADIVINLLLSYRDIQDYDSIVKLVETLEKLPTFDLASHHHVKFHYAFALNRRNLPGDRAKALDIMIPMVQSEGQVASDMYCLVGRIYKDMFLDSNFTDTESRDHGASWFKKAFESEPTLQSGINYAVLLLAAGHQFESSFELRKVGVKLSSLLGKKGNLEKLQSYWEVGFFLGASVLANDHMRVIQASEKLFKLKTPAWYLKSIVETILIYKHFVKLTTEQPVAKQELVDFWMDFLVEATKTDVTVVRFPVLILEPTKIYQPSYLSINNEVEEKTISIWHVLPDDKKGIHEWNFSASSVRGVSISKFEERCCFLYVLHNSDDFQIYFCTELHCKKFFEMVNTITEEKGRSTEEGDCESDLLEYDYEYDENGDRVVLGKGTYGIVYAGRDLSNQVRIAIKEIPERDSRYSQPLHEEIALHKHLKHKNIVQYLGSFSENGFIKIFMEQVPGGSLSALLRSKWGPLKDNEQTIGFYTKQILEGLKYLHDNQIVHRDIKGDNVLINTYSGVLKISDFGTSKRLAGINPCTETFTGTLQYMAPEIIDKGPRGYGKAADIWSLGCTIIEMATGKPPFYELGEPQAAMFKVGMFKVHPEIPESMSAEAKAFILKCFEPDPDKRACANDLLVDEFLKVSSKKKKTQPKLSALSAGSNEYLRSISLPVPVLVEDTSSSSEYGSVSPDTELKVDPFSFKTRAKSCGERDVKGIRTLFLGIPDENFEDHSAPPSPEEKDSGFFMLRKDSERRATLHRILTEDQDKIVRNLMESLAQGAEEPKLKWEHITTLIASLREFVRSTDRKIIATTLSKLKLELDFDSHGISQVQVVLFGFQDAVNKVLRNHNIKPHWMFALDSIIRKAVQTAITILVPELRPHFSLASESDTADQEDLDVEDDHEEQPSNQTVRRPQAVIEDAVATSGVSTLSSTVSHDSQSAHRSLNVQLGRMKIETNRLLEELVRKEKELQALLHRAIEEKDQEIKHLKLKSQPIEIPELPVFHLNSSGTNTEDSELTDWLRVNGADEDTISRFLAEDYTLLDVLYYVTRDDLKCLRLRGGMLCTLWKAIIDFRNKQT", "settings": "ATP 200 µM"}, "MTOR FKBP1A (human)": {"target": "MTOR FKBP1A (human) (UniProt P42345+P62942)", "sequence (P62942 whole entry, looked up, other chains not shown)": "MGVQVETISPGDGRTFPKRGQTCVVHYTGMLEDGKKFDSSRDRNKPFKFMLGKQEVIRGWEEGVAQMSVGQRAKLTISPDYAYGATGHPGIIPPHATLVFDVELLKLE", "settings": "ATP 45 µM"}, "STK17A (human)": {"target": "STK17A (human) (UniProt Q9UEE5)", "settings": "compound 1.0 µM; ATP 10 µM"}, "NTRK2 (human)": {"target": "NTRK2 (human) (UniProt Q16620)", "settings": "ATP 90 µM"}, "PRKX (human)": {"target": "PRKX (human) (UniProt P51817)", "settings": "compound 10.0 µM; ATP 200 µM"}, "MAPK10 (human)": {"target": "MAPK10 (human) (UniProt P53779)", "sequence (P53779 whole entry, looked up)": "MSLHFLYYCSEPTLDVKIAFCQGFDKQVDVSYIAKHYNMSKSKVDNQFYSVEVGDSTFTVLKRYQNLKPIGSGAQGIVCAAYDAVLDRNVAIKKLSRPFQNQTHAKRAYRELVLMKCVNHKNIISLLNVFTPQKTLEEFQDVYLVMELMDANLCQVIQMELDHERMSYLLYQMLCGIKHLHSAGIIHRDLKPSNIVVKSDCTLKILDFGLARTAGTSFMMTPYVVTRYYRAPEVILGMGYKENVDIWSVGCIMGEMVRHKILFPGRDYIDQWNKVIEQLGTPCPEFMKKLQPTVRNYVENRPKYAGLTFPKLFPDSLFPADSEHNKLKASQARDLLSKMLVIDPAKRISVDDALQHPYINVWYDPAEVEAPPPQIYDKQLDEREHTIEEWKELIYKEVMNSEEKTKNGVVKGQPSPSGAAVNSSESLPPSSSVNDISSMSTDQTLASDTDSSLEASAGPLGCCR", "settings": "ATP 10 µM"}, "BRSK1 (human)": {"target": "BRSK1 (human) (UniProt Q8TDC3)", "sequence (Q8TDC3 whole entry, looked up)": "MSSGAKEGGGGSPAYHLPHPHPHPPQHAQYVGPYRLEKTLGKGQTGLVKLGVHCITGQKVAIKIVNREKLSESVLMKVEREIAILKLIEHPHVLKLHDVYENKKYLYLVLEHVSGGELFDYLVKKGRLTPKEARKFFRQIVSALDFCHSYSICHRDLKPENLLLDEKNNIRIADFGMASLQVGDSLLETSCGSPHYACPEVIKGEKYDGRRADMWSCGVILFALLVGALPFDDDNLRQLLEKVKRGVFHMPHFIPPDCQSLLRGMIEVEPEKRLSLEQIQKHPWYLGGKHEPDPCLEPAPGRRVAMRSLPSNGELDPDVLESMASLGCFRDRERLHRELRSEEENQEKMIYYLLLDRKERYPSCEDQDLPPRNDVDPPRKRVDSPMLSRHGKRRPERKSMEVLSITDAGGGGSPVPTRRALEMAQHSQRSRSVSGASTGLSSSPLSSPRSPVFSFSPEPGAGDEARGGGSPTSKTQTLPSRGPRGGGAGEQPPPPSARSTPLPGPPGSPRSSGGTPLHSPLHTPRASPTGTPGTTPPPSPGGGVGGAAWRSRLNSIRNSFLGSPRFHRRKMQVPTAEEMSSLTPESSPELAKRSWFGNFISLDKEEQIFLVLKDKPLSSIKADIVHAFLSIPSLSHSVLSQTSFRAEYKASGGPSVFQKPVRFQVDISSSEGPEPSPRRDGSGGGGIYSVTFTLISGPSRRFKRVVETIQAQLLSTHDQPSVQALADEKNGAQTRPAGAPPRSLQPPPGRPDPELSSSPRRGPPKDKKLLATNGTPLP", "settings": "ATP 200 µM"}},
  "data": [
    {"smiles": "COC(=O)[C@]1(O)C[C@@H]2O[C@@]1(C)n1c3ccccc3c3c4c(c5c6ccccc6n2c5c31)C(=O)NC4", "values": [
      {"measurement": "residual activity", "setting": "[1]; compound 1.0 µM", "value": -5, "unit": "%"},
      {"measurement": "residual activity", "setting": "[1]; compound 10.0 µM", "value": 1, "unit": "%"},
      {"measurement": "residual activity", "setting": "INSR (human)", "value": 0, "unit": "%"},
      {"measurement": "residual activity", "setting": "TLK2 (human)", "value": 0, "unit": "%"},
      {"measurement": "residual activity", "setting": "TNK2 (human); compound 1.0 µM", "value": 0, "unit": "%"},
      {"measurement": "residual activity", "setting": "TNK2 (human); compound 10.0 µM", "value": 0, "unit": "%"},
      {"measurement": "residual activity", "setting": "MAP3K9 (human)", "value": 0, "unit": "%"},
      {"measurement": "residual activity", "setting": "CAMK1D (human)", "value": 0, "unit": "%"},
      {"measurement": "residual activity", "setting": "STK33 (human)", "value": 0, "unit": "%"},
      {"measurement": "residual activity", "setting": "DYRK2 (human)", "value": -4, "unit": "%"},
      {"measurement": "residual activity", "setting": "MAP3K7 (human); compound 1.0 µM", "value": -1, "unit": "%"},
      {"measurement": "residual activity", "setting": "MAP3K7 (human); compound 10.0 µM", "value": -5, "unit": "%"},
      {"measurement": "residual activity", "setting": "ULK2 (human)", "value": 0, "unit": "%"},
      {"measurement": "residual activity", "setting": "[2]", "value": -1, "unit": "%"},
      {"measurement": "residual activity", "setting": "FGR (human)", "value": -1, "unit": "%"},
      {"measurement": "residual activity", "setting": "SIK1 (human); compound 1.0 µM", "value": 0, "unit": "%"},
      {"measurement": "residual activity", "setting": "SIK1 (human); compound 10.0 µM", "value": 0, "unit": "%"},
      {"measurement": "residual activity", "setting": "CAMK2G (human)", "value": 0, "unit": "%"},
      {"measurement": "residual activity", "setting": "CHEK1 (human)", "value": -1, "unit": "%"},
      {"measurement": "residual activity", "setting": "CAMK2D (human)", "value": 0, "unit": "%"},
      {"measurement": "residual activity", "setting": "CAMK2B (human); compound 1.0 µM", "value": 0, "unit": "%"},
      {"measurement": "residual activity", "setting": "CAMK2B (human); compound 10.0 µM", "value": -1, "unit": "%"},
      {"measurement": "residual activity", "setting": "RPS6KA4 KD1 KD2 (human); compound 1.0 µM", "value": -1, "unit": "%"},
      {"measurement": "residual activity", "setting": "RPS6KA4 KD1 KD2 (human); compound 10.0 µM", "value": 0, "unit": "%"},
      {"measurement": "residual activity", "setting": "RPS6KA2 KD1 KD2 (human)", "value": 0, "unit": "%"},
      {"measurement": "residual activity", "setting": "MAPK8 (human); compound 1.0 µM", "value": -12, "unit": "%"},
      {"measurement": "residual activity", "setting": "MAPK8 (human); compound 10.0 µM", "value": -20, "unit": "%"},
      {"measurement": "residual activity", "setting": "CDK3 CCNE1 (human); compound 1.0 µM", "value": 27, "unit": "%"},
      {"measurement": "residual activity", "setting": "CDK3 CCNE1 (human); compound 10.0 µM", "value": 2, "unit": "%"},
      {"measurement": "residual activity", "setting": "GCK (human)", "value": 0, "unit": "%"},
      {"measurement": "residual activity", "setting": "ACVR1B (human)", "value": 0, "unit": "%"},
      {"measurement": "residual activity", "setting": "KDR (human)", "value": 0, "unit": "%"},
      {"measurement": "residual activity", "setting": "PDPK1 (human); compound 1.0 µM", "value": -1, "unit": "%"},
      {"measurement": "residual activity", "setting": "PDPK1 (human); compound 10.0 µM", "value": 0, "unit": "%"},
      {"measurement": "residual activity", "setting": "[3]; compound 1.0 µM", "value": -1, "unit": "%"},
      {"measurement": "residual activity", "setting": "[3]; compound 10.0 µM", "value": 0, "unit": "%"},
      {"measurement": "residual activity", "setting": "TBK1 (human)", "value": -1, "unit": "%"},
      {"measurement": "residual activity", "setting": "PAK4 (human)", "value": 0, "unit": "%"},
      {"measurement": "residual activity", "setting": "MAP3K5 (human); compound 1.0 µM", "value": 0, "unit": "%"},
      {"measurement": "residual activity", "setting": "MAP3K5 (human); compound 10.0 µM", "value": 0, "unit": "%"},
      {"measurement": "residual activity", "setting": "MTOR FKBP1A (human); compound 1.0 µM", "value": 89, "unit": "%"},
      {"measurement": "residual activity", "setting": "MTOR FKBP1A (human); compound 10.0 µM", "value": 79, "unit": "%"},
      {"measurement": "residual activity", "setting": "STK17A (human)", "value": 0, "unit": "%"},
      {"measurement": "residual activity", "setting": "NTRK2 (human); compound 1.0 µM", "value": 0, "unit": "%"},
      {"measurement": "residual activity", "setting": "NTRK2 (human); compound 10.0 µM", "value": 0, "unit": "%"},
      {"measurement": "residual activity", "setting": "PRKX (human)", "value": 0, "unit": "%"},
      {"measurement": "residual activity", "setting": "MAPK10 (human); compound 1.0 µM", "value": -3, "unit": "%"},
      {"measurement": "residual activity", "setting": "MAPK10 (human); compound 10.0 µM", "value": -1, "unit": "%"},
      {"measurement": "residual activity", "setting": "BRSK1 (human); compound 1.0 µM", "value": -1, "unit": "%"},
      {"measurement": "residual activity", "setting": "BRSK1 (human); compound 10.0 µM", "value": 0, "unit": "%"}
    ]}
  ]
}
